Article PMC7594077, “An Alcohol Dehydrogenase 3 (ADH3) from Entamoeba histolytica Is Involved in the Detoxification of Toxic Aldehydes” (Microorganisms, 2020)

Assays:
[1] = target: T1, recEhADH3B^b (Entamoeba histolytica, UniProt C4M6R1); experiment: NADPH oxidation at […] nm, Michaelis-Menten; format: biochemical; details: 0.7 mM NADPH, pH 7.4, EDTA-treated and dialysed enzyme incubated with 1 mM Ni2+; reduction direction
T1 construct: gene EHI_088020; E. coli BL21(DE3); dimer; EDTA-stripped and reloaded with Ni2+
T1 sequence (C4M6R1 1-382): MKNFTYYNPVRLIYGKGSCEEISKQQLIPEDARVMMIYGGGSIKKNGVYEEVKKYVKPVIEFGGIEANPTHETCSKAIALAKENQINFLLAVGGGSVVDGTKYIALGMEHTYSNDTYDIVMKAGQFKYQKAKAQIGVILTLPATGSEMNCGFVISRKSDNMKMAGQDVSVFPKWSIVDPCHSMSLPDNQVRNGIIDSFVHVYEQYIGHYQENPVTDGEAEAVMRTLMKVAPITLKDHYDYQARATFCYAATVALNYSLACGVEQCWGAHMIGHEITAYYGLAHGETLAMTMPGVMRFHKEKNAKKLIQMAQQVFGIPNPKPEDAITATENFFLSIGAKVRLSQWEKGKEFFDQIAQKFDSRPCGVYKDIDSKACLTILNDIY

[2] = target: recombinant EhADH3B^b (alcohol dehydrogenase 3B of Entamoeba histolytica) (Entamoeba histolytica); experiment: SEC; HiLoad 16/60 Superdex prep grade column; 50 mM Tris, 150 mM NaCl, 10 mM EDTA, 1 mM DTT, 10% glycerol, pH 8.0; elution peak at 82 mL compared with standard proteins

| stoichiometry N [2] | Compound | Km [1] |
| --- | --- | --- |
| – | C=O [formaldehyde] | 63.7 [95% CI 25.3 to 267.4] mM |
| – | CC=O [acetaldehyde] | 30.84 [95% CI 16.21–60.54] mM |
| 2 | recombinant EhADH3B^b (alcohol dehydrogenase 3B of Entamoeba histolytica) (enzyme) | – |
